Measured values as given in PubChem BioAssay AID540338 (Southern Research Specialized Biocontainment Screening …, 2011).
The source made the active and inactive calls.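 The calls were made as follows: active = cell viability below 70% of untreated cell signal at any tested dose; inactive = the rest.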

tested on: HEp-2 viability, luminescence (CellTiter-Glo); experiment: HEp-2 cell cytotoxicity, dose response, cytotoxicity control for RSV antiviral project, synthesized compounds, set 12 (AID 540338)

| SMILES | CC50 |
| --- | --- |
| COCCCNC(=O)c1ccc(Cn2c(=O)c3ccccc3n(Cc3ccccn3)c2=O)cc1 | 16 µM |
| COCCCNC(=O)c1ccc(Cn2c(=O)c3ccccc3n(CCc3ccc(Br)cc3)c2=O)cc1 | < 1.6 µM |
| COCCCNC(=O)c1ccc(Cn2c(=O)c3ccccc3n(CC3CCCCC3)c2=O)cc1 | > 200 µM (inactive) |
| COCCCNC(=O)c1ccc(Cn2c(=O)c3ccccc3n(CCc3ccc(C)cc3)c2=O)cc1 | < 1.6 µM |
| COCCCNC(=O)c1ccc(Cn2c(=O)c3ccccc3n(CCc3ccc(C(F)(F)F)cc3)c2=O)cc1 | 116 µM |
| COCCCNC(=O)c1ccc(Cn2c(=O)c3ccccc3n(Cc3ccc(C)cc3)c2=O)cc1 | 69 µM |
| COCCCNC(=O)c1ccc(Cn2c(=O)c3ccccc3n(Cc3cccnc3)c2=O)cc1 | 8 µM |
